Series [1] deals with CDK9/CyclinT (Homo sapiens, UniProt P50750). Description: ADP-Glo protein kinase assay, CDK9/CyclinT. It is filed as biochemical. The conditions noted are these: 10 µM ATP, normalized to DMSO control, mean n = 2. As for the experimental part:
(§1) Kinase enzymatic activities were assayed in 384-well plates using the ADP-Glo^TM assay kit, following the recommendations of the manufacturer (Promega, Madison, WI). Controls were performed in appropriate dilutions of dimethyl sulfoxide (DMSO). Kinase activities, measured in the presence of 10 µM ATP, are expressed as percentage of maximal activity, i.e., measured in the absence of inhibitor. In order to determine the half-maximal inhibitory concentration (IC50), the assays were performed in duplicate in the absence or presence of increasing doses of the tested compounds. Data were analyzed using GraphPad PRISM (GraphPad Software, San Diego, CA, USA) software to fit a sigmoïdal curve that allowed determination of the IC50 values. The experimental conditions used for measuring kinase activities are comprehensively described in Ibrahim et al.. Human recombinant ABL1 mutant (T315I) was purchased from Promega (Catalog # V5320) and tested following the recommendations of the manufacturer (Promega, Madison, WI, USA).
For orientation: ADP-Glo first removes unused ATP, then detects ADP through luciferase.

Series [2] has as its target Pim1 (Homo sapiens, UniProt P11309). Put plainly: ADP-Glo protein kinase assay, Pim1. Conditions: for % of kinase activity that remained, Pim1: 10 µM ATP, normalized to DMSO control, mean n = 2. It is filed as biochemical. The procedure:
as §1

Series [3] deals with GSK-3β (Homo sapiens, UniProt P49841). Put plainly: ADP-Glo protein kinase assay, GSK-3β. It is filed as biochemical. Conditions: for % of kinase activity that remained, GSK-3β: 10 µM ATP, normalized to DMSO control, mean n = 2. The procedure:
as §1

The target in series [4] is CK1ε (Homo sapiens, UniProt P49674). Description: ADP-Glo protein kinase assay, CK1ε. It is filed as biochemical. Conditions: for % of kinase activity that remained, CK1ε: 10 µM ATP, normalized to DMSO control, mean n = 2. The procedure:
as §1

Series [5] has as its target T1, JAK3 (Homo sapiens, UniProt P52333).
T1 sequence (P52333 1-1124): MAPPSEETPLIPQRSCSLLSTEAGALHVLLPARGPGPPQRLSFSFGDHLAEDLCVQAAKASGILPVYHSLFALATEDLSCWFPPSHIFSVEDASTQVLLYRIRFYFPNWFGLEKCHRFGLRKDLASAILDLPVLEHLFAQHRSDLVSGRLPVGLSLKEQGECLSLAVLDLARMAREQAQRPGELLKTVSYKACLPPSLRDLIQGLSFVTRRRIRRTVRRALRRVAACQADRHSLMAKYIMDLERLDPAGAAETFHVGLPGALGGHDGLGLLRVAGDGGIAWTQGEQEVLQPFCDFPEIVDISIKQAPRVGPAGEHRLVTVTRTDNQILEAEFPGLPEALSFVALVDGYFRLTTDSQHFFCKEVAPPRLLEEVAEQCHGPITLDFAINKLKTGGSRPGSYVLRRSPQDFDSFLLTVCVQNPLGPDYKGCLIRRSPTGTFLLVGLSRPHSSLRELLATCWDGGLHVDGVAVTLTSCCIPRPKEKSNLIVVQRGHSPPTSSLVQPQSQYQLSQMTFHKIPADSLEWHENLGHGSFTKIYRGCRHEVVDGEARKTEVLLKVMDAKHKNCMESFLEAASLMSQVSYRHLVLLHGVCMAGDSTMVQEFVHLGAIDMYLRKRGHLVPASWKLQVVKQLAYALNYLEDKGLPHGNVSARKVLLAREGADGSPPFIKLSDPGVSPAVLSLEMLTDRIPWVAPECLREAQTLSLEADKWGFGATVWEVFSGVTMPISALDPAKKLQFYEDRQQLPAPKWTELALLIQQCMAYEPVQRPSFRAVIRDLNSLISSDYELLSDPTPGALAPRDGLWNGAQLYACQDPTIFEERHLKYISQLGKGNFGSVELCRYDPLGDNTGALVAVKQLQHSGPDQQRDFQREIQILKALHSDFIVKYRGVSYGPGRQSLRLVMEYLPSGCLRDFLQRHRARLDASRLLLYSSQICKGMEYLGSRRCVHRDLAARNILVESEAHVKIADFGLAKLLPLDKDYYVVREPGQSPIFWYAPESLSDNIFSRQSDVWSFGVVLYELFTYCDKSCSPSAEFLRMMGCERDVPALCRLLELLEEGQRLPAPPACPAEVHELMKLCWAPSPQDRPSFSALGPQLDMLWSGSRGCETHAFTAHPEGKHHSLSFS
Description: ADP-Glo protein kinase assay, JAK3. It is filed as biochemical. Conditions: for % of kinase activity that remained, JAK3: 10 µM ATP, normalized to DMSO control, mean n = 2. The procedure:
as §1

Series [6] concerns the target ABL1 (Homo sapiens, UniProt P00519). Description: ADP-Glo protein kinase assay, ABL1. It is filed as biochemical. The conditions noted are these: for % of kinase activity that remained, ABL1: 10 µM ATP, normalized to DMSO control, mean n = 2. The procedure: as §1, with “Kinase activities, measured in the presence of 10 µM ATP, are expressed as percentage of maximal activity, i.e., measured in the absence of inhibitor.” left out

Series [7] addresses GSK-3α (Homo sapiens, UniProt P49840). Put plainly: ADP-Glo protein kinase assay, GSK-3α. It is filed as biochemical. The procedure: as §1
Series [8] addresses VEGFR2 (Homo sapiens, UniProt P35968). Put plainly: ADP-Glo protein kinase assay, VEGFR2. It is filed as biochemical. The procedure:
as §1

The target of series [9] is NEK6 (Homo sapiens, UniProt Q9HC98). Put plainly: ADP-Glo protein kinase assay, NEK6. It is filed as biochemical. As for the experimental part: as §1
Chain of NEK6 (Q9HC98 whole entry): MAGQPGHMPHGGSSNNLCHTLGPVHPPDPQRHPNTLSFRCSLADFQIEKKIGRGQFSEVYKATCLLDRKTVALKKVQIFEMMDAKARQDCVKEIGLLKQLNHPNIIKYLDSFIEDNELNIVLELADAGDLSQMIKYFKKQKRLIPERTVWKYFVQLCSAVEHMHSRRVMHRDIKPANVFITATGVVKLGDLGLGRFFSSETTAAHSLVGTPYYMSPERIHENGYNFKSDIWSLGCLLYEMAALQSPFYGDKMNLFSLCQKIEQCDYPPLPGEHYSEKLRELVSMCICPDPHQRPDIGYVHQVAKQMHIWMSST
The conditions of series [10]: cited from earlier work.
Where [11] appears, read: betulin purified from Acacia auriculiformis at 1 µg/mL.
[12] abbreviates: betulin purified from Acacia auriculiformis at 10 µg/mL.

Broadly, the inhibition is the relative decrease from the control value, in per cent. A word on the IC50: it is the concentration needed to halve the response being measured. Low values mean higher potency, high ones lower potency.

Where “and” joins values, the source holds several entries; their conditions need not be identical. Identical values can stand only once.

Chain of CK1ε (P49674 whole entry): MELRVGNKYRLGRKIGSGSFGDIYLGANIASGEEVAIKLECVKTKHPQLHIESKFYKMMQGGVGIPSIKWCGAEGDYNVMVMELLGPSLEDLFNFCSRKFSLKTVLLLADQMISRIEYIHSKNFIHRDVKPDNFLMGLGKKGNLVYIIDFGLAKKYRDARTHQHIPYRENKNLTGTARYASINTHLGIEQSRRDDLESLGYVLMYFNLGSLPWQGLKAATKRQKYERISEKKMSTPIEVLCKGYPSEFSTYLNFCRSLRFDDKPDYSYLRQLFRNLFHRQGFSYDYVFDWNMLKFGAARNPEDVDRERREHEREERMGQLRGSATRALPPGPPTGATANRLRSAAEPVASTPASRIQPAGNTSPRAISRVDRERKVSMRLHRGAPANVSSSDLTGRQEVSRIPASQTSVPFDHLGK
Chain of GSK-3β (P49841 whole entry): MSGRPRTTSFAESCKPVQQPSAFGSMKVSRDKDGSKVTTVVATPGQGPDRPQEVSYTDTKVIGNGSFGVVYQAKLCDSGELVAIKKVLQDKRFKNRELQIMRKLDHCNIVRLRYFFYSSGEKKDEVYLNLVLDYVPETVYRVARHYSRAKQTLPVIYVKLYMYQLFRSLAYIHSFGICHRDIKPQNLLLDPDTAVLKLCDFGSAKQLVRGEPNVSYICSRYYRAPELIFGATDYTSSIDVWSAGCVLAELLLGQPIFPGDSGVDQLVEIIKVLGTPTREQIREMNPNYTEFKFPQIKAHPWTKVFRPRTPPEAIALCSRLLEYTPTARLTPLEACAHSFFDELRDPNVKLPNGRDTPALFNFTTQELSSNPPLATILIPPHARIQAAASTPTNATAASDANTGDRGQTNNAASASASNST
Chain of Pim1 (P11309 whole entry): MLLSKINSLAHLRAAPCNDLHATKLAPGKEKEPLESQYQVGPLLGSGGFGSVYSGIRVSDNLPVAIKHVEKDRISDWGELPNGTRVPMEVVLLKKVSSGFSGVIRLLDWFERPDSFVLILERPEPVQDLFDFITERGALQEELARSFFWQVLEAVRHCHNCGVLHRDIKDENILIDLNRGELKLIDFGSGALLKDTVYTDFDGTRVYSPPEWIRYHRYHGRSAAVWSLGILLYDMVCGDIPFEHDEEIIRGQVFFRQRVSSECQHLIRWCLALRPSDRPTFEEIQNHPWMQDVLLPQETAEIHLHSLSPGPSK
Chain of ABL1 (P00519 whole entry): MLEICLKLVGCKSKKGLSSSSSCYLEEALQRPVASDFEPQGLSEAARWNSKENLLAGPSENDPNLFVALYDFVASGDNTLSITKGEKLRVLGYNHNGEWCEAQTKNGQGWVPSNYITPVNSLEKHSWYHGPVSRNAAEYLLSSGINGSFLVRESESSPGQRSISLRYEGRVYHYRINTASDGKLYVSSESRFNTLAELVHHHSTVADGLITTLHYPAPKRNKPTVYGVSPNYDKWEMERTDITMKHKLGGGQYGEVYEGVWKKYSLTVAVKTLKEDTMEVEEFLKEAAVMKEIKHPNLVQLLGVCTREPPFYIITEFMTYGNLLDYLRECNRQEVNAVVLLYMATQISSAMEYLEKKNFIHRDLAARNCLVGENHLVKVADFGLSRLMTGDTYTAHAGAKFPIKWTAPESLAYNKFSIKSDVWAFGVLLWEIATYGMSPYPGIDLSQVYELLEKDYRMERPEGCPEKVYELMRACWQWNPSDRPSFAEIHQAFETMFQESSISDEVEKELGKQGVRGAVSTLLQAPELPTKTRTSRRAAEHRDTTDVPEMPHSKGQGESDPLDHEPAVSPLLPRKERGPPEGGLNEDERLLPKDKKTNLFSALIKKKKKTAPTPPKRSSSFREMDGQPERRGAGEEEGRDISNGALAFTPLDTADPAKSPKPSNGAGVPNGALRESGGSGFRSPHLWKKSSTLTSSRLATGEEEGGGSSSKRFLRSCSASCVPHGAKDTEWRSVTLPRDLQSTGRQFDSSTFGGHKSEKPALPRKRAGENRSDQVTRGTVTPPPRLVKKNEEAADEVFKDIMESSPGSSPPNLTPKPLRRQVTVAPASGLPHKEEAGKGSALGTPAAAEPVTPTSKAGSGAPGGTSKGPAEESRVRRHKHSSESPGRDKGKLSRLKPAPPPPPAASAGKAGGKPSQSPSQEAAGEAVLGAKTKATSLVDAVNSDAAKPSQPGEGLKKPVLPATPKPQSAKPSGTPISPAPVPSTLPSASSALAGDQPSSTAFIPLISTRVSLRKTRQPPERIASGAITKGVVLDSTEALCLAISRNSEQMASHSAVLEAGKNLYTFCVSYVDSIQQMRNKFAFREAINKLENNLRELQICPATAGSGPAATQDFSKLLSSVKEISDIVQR
Chain of CDK9/CyclinT (P50750 whole entry): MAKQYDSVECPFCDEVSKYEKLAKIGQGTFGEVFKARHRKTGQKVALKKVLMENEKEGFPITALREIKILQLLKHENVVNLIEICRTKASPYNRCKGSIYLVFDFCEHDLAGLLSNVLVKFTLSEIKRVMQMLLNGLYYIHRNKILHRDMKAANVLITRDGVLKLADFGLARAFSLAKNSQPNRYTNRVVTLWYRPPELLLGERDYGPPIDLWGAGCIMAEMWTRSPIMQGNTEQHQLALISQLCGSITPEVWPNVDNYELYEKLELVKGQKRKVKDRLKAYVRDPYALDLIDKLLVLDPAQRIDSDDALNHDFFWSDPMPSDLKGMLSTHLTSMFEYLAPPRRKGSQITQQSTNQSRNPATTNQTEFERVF
Chain of CDK9/CyclinT (O60563 whole entry partner): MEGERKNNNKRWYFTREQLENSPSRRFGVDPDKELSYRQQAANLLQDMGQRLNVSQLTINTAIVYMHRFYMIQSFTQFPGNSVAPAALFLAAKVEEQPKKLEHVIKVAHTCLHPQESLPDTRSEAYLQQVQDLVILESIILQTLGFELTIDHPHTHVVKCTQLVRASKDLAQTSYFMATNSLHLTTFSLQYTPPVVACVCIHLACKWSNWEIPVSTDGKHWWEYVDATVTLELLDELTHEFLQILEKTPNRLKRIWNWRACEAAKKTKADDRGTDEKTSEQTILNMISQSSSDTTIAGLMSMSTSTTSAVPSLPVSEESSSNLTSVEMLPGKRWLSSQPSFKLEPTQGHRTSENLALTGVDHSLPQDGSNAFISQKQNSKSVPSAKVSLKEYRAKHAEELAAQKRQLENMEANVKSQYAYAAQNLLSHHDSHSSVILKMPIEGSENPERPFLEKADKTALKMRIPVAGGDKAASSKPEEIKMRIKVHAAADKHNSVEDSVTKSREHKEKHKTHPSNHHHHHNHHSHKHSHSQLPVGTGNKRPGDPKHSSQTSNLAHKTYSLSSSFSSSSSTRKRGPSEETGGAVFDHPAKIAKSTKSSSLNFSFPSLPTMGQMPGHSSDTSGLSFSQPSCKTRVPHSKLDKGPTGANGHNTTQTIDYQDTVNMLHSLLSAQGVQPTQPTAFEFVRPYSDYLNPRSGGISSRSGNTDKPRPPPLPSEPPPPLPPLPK
Chain of GSK-3α (P49840 whole entry): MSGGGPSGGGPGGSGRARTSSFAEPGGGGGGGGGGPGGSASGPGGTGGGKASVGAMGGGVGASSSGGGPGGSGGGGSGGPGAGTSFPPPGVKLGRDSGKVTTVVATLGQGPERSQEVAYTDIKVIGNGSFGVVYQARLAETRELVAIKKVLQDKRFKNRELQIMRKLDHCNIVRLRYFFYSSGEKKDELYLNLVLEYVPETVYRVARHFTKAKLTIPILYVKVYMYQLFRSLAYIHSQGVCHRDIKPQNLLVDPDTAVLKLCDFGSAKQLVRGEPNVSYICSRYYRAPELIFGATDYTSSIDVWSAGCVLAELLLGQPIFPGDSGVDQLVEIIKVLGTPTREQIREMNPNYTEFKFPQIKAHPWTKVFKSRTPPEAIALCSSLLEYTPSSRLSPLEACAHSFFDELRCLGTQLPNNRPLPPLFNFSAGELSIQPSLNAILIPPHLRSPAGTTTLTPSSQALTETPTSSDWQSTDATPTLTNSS

As to `C=C(C)[C@@H]1CC[C@]2(CO)CC[C@]3(C)[C@H](CC[C@@H]4[C@@]5(C)CC[C@H](O)C(C)(C)[C@@H]5CC[C@]43C)[C@@H]12` [Betulin, 3-lup-20(29)-ene-3β,28-diol], the “% of kinase activity that remained, CDK9/CyclinT” value is on record as 88% in [1] (setting [11]) and 60% in [1] (setting [12]). Moreover, the “% of kinase activity that remained, Pim1” value in series [2] (betulin purified from Acacia auriculiformis at 1 µg/mL, ≥100 = no detectable inhibition) was at least 100%; in [2] (setting [12]) it was 90%. Also, the inhibition at 10 µg/mL was 10% in series [2] (read-out: inhibition of kinase activity, Pim1) and 79% in [6] (read-out: inhibition of kinase activity, ABL1). The IC50 was 1060 nM in series [3]; 2110 nM in series [4]; 1080 nM in [5]; 930 nM in [6]; 720 nM in [7]; 2450 nM in [8]. In series [9], this molecule had an IC50 of 3.02 µM. Also, the entries for the “% of kinase activity that remained, GSK-3β” value in series [3] (setting [11]) and in series [3] (setting [12]) were 38% and 30%, respectively. The “% of kinase activity that remained, CK1ε” value in series [4] (setting [11]) amounted to 53%; in [4] (setting [12]) it was 48%. In addition, the “% of kinase activity that remained, JAK3” value is recorded as 28% in [5] (setting [11]) and 25% in [5] (setting [12]). Besides, the “inhibition of the ABL1 activity in ATP competition assay” value in series [6] (10 µM betulin, 100 µM ATP compared with 10 µM ATP) is “significantly decreased”. The “% of kinase activity that remained, ABL1” value in series [6] (setting [11]) was found to be 36%; in [6] (setting [12]) it was 21%. Moreover, the solubility in water in series [10] is 0.08 μg/mL and 0.18 µM.

These data come from publication PMC8347092, “Betulin, a Newly Characterized Compound in Acacia auriculiformis Bark, Is a Multi-Target Protein Kinase Inhibitor” (Molecules, 2021).
